Test results taken from patent US20230139826A1 (NONO INC., priority 2020, published 2023).
Residues, ends and D or L forms follow the SMILES beside them.

Tests used:
plasmin = plasmin (Homo sapiens, UniProt P00747)
Experimental: (A) LC/MS spectrum of nerinetide after incubation with plasmin in PBS. 10 uL aliquots of nerinetide (18 mg/mL) and plasmin (1 mg/mL) were incubated in 500 uL tubes of phosphate-buffered saline at 37 C for 5 min and the reaction stopped by cooling to −80 C until tested. […] (B, C) In-vitro effect of rt-PA on nerinetide content in rat (B) and human (C) plasma. Nerinetide was spiked into the plasma samples at t=0 at a concentration of 65 ug/ml, whereas alteplase (rt-PA) was administered as a 60 min infusion at the indicated concentration (D, E) In-vivo effect of the simultaneous administration of nerinetide and rt-PA on Cmax (D) and AUC (E) in the rat. The nerinetide bolus and alteplase (60 min infusion) were started simultaneously through two separate intravenous lines. Symbols represent mean±SD. […] […] (SEQ ID NO:3) (Full-length NA-1, undigested), […] […] (SEQ ID NO:8), […] […] (SEQ ID NO:10).
Direct ELISA of the indicated biotinylated peptides to the PDZ2 domain of PSD-95. […] Symbols indicate the mean±SD of triplicate experiments. […] (B). […] E,F. Time course of nerinetide or D-TAT-L-2B9c content in rat plasma (E) and human plasma (F) during a challenge with tenecteplase (TNK; 37.5 ug/ml or 6.25 ug/ml, respectively). […] (repeated measures two-way ANOVA with a post hoc Sidak's multiple comparisons test, *P<0.01). Symbols are means±SD. […]

[1] = PK dose-separation study in cynomolgus macaques; type: in vivo, cynomolgus macaques (Macaca fascicularis); conditions: macaque
Experimental: We conducted further PK studies to probe the necessary dose-separation interval to mitigate degradation. These studies were conducted in cynomolgus macaques (Macaca fascicularis) to maximize their relevance to humans. Nerinetide was given as a 10-minute intravenous infusion at a dose of 2.6 mg/kg. This dosing regimen was neuroprotective in macaques exposed to stroke by LVO (Cook et al., Nature 483, 213-217 (2012)) and was used in both the Phase 2 ENACT trial (Lancet Neurol 11, 942-950 (2012)) and the ESCAPE-NA1 trial (Lancet 395, 878-887 (2020)). We examined the scenarios in which alteplase administration was started simultaneously with the nerinetide infusion start, at the end of the 10-minute nerinetide infusion, or 10 minutes after the end of nerinetide infusion. Alteplase (1 mg/kg) was administered through a separate intravenous line as a 10% bolus, followed by an infusion of the remaining 90% over 1 hour, as per its clinical use.

PDZ2 domain of PSD-95 = PDZ2 domain of PSD-95 (Homo sapiens, UniProt P78352); assay: Direct ELISA of biotinylated peptides to PSD-95 PDZ2; type: binding; conditions: biotinylated peptides, triplicate; read-out: EC50, direct ELISA binding to PSD-95 PDZ2 domain
Sequence of PDZ2 domain of PSD-95 (P78352 160-246 limits assumed): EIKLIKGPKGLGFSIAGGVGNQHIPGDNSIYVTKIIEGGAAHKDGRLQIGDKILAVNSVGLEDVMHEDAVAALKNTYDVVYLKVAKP
Experimental: ELISA plates were coated with 1 ug/ml PSD95PDZ2 in 50 mM bicarbonate buffer overnight at 4 C. The plate was blocked in 2%BSA in PBST (0.05%) for 2 h at room temperature. It was then incubated with biotinylated ligand (nerinetide, D-tat-L2B9c or D-Tat-L-AA) at the indicated concentrations (FIG. 4A) and incubated overnight at 4 C. After washing with PBS-T, the plate was incubated for 30 min with (1:3000) SA-HRP, washed again, and incubated with TMB solution for 10 min. The reaction was stopped with 100 ul H2504. Absorbance was determined at 450 nm with the synergy H1 reader.

acute ischemic stroke = assay: ESCAPE-NA1 trial: treatment emergent serious adverse events; type: in vivo, human
Text: The primary outcome was good outcome as defined by a score of 0-2 on the modified Rankin scale (mRS) (range, 0 [no symptoms] to 6 [death]) for the assessment of neurologic functional disability^2 assessed in person or, if an in-person visit was not possible, by telephone, at 90 days after randomization by personnel certified in the scoring of the mRS. Secondary efficacy outcomes were neurological outcome as defined by the NIHSS of 0-2, functional independence in activities of daily living as defined by a Barthel Index score of ≥95, excellent functional outcome as defined by a score of 0-1 on the mRS and mortality rates. Tertiary outcomes included assessments of stroke volumes on 24-hour imaging (MR or CT brain). Prespecified safety outcomes were all serious adverse events and mortality. Imaging interpretation was conducted at a central core laboratory and clinical data were verified by independent monitors. Infarct volumes were measured by summation of manual planimetric demarcation of infarct on axial imaging (636/1099 (57.9%) on CT and 463/1099 (42.1%) on MRI).
The safety population included all patients who received any amount of study drug (n=1101). There were no differences in important safety outcomes. (Table 3).

[2] = alteplase started at the end of the nerinetide infusion

Sequence of plasmin (P00747 581-810 limits assumed, species assumed): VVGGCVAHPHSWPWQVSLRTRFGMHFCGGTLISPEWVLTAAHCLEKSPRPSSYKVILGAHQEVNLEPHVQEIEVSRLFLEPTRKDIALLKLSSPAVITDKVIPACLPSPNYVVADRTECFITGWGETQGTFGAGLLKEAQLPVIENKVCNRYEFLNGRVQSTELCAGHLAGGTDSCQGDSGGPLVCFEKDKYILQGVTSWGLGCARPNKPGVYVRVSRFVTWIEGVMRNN
Sequence of plasmin (P00747 97-580 partner limits assumed, species assumed): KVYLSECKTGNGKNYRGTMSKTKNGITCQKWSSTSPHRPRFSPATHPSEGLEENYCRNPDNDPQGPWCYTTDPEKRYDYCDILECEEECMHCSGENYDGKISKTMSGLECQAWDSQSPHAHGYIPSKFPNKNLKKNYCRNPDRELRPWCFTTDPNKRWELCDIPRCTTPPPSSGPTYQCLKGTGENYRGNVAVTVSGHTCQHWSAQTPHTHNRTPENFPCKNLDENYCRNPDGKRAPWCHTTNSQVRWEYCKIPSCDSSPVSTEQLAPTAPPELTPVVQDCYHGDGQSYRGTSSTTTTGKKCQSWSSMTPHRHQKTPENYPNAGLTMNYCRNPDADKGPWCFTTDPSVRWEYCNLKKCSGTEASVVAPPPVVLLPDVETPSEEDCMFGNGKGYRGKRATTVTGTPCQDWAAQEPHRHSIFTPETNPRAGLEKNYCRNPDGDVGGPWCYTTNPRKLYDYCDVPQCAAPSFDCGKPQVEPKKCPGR

CC[C@H](C)[C@H](NC(=O)[C@H](CO)NC(=O)[C@H](CO)NC(=O)[C@H](CC(C)C)NC(=O)[C@H](CCCCN)NC(=O)[C@H](CCCN=C(N)N)NC(=O)[C@H](CCCN=C(N)N)NC(=O)[C@H](CCCN=C(N)N)NC(=O)[C@H](CCC(N)=O)NC(=O)[C@H](CCCN=C(N)N)NC(=O)[C@H](CCCN=C(N)N)NC(=O)[C@H](CCCCN)NC(=O)[C@H](CCCCN)NC(=O)[C@H](CCCN=C(N)N)NC(=O)CNC(=O)[C@@H](N)Cc1ccc(O)cc1)C(=O)N[C@@H](CCC(=O)O)C(=O)N[C@@H](CO)C(=O)N[C@@H](CC(=O)O)C(=O)N[C@H](C(=O)O)C(C)C [Nerinetide] (H-YGRKKRRQRRRKLSSIESDV-OH)
stability alone in phosphate buffered saline (plasmin): stable
degradation of Cmax or AUC by alteplase ([1]; alteplase 10 minutes after the end of the 10-min nerinetide infusion): eliminated degradation of Cmax or AUC
reduction in the AUC of nerinetide [1, 2]: 32.3%
reduction of the Cmax of nerinetide [1, 2]: 23.1%
reduction in the AUC of nerinetide ([1]; alteplase started simultaneously): 53.9%
reduction of the Cmax of nerinetide ([1]; nerinetide 2.6 mg/kg 10-minute infusion, alteplase 1 mg/kg started simultaneously): 47.4%
EC50 (PDZ2 domain of PSD-95): 93 nM
Angioedema, patients number (proportion) (acute ischemic stroke; nerinetide n = 547): 1 (0.2%)
Congestive cardiac failure, patients number (proportion) (acute ischemic stroke; nerinetide n = 547): 9 (1.6%)
Deep vein thrombosis/pulmonary embolism, patients number (proportion) (acute ischemic stroke; nerinetide n = 547): 3 (0.5%)
Hives/Urticaria/Pruritis, number of patients (acute ischemic stroke; nerinetide n = 547): 0
Hypotension, patients number (proportion) (acute ischemic stroke; nerinetide n = 547): 7 (1.3%)
Ischaemic stroke (new onset/recurrent), patients number (proportion) (acute ischemic stroke; nerinetide n = 547): 18 (3.3%)
Pneumonia, patients number (proportion) (acute ischemic stroke; nerinetide n = 547): 25 (4.6%)
Stroke-in-evolution (progression), patients number (proportion) (acute ischemic stroke; nerinetide n = 547): 36 (6.6%)
Symptomatic ICH, patients number (proportion) (acute ischemic stroke; nerinetide n = 547): 19 (3.5%)
Urinary tract infection, patients number (proportion) (acute ischemic stroke; nerinetide n = 547): 8 (1.5%)
Angioedema, RR (95% CI) unadjusted (acute ischemic stroke; nerinetide vs placebo): 1.01 (0.06-16.1)
Any serious adverse Event, RR (95% CI) unadjusted (acute ischemic stroke; nerinetide vs placebo): 0.92 (0.79-1.09)
Congestive cardiac failure, RR (95% CI) unadjusted (acute ischemic stroke; nerinetide vs placebo): 2.28 (0.71-7.36)
Deep vein thrombosis/pulmonary embolism, RR (95% CI) unadjusted (acute ischemic stroke; nerinetide vs placebo): 0.38 (0.1-1.42)
Hypotension, RR (95% CI) unadjusted (acute ischemic stroke; nerinetide vs placebo): 7.09 (0.88-57.4)
Ischaemic stroke (new onset/recurrent), RR (95% CI) unadjusted (acute ischemic stroke; nerinetide vs placebo): 0.91 (0.49-1.70)
Pneumonia, RR (95% CI) unadjusted (acute ischemic stroke; nerinetide vs placebo): 1.49 (0.81-2.73)
Stroke-in-evolution (progression), RR (95% CI) unadjusted (acute ischemic stroke; nerinetide vs placebo): 0.85 (0.55-1.30)
Symptomatic ICH, RR (95% CI) unadjusted (acute ischemic stroke; nerinetide vs placebo): 0.80 (0.44-1.45)
Urinary tract infection, RR (95% CI) unadjusted (acute ischemic stroke; nerinetide vs placebo): 1.15 (0.42-3.17)
rates of adverse events compared with placebo (acute ischemic stroke; patients treated with nerinetide): no significant differences
Any serious adverse Event, patients number (proportion) (acute ischemic stroke; safety population, nerinetide n = 547): 181 (33.1%)
